# In article PMC5789847, “Bismuth antimicrobial drugs serve as broad-spectrum metallo-β-lactamase inhibitors” (Nature Communications, 2018):
# How the values were obtained:
# NDM-HK PCV = test: Microdilution MIC and checkerboard assay; type: cell-based, E. coli
# Description: The bacteria employed for cell-based and animal studies are listed in Supplementary Table 1. All the E. coli variants were made as described below. The NDM-HK PCV was screened by 20th-generation serial passages of NDM-HK in antibiotic-free medium.
# (§1) MIC values were determined by standard broth micro-dilution method (Clinical and Laboratory Standards Institute (CLSI) M100-S20, 2010)[64]. Briefly, bacterial cells were cultured in LB broth overnight at 37 °C at 250 rpm and the OD was measured at 600 nm (OD600). The bacterial density was adjusted to about 1 × 10^6 CFU mL^−1 and checked by CFU counting on agar plates afterwards. Tested antibiotics or Bi(III) compounds were added triplicately into individual wells of flat-bottomed 96-well plates and performed 2-fold serial dilution, followed by addition of prepared bacterial inocula. The plate was then incubated at 37 °C for overnight. […] The MIC was determined as the lowest concentration of a drug that could inhibit the growth of microorganism by both visual reading and OD reading at 600 nm using a microtiter plate reader.
# (§2) Other procedures were kept strictly the same. […] Synergism was defined when FICI ≤ 0.5, indifference was defined when FICI > 0.5 and < 4, and antagonism was defined when FICI≥4[65]. […] All of the determinations were performed at least in triplicate on different days.
# C208A-Rosetta = test: Microdilution MIC assay; type: cell-based, E. coli; conditions: C208A-Rosetta
# Description: For the test of C208A-Rosetta, the growth condition briefly goes as follow. Overnight culture of C208A-Rosetta was diluted into fresh LB medium (1000-fold) and regrew to OD ~0.6. The overexpression of NDM-1-C208A was induced by addition of 200 μM isopropyl β-D-1-thiogalactopyranoside (IPTG) for 18 h at 25 °C. The following susceptibility test was performed as described in the Microdilution MIC and MBC assay section in the methodology by using the resulting bacterial pellets with the supplementation of 200 μM IPTG.
# (§3) Other procedures were kept strictly the same.
# [1] = system: NDM-C. freundii (NDM-1^+); test: Microdilution MIC/MBC and checkerboard assay; type: cell-based, Citrobacter freundii
# Description: as §1
# Resulting growth (or lack of growth) was examined after overnight culturing and the lowest concentration that inhibits 99.9% of the original culture was taken as MBC.
# as §2
# NDM-1-C208A = NDM-1-C208A (Klebsiella pneumoniae, UniProt C7C422, C208A); test: Residual enzyme activity of NDM-1 variant with CBS at IC50; type: biochemical; conditions: CBS at IC50 concentration, compared with WT NDM-1
# [2] = design: method as in earlier work; conditions: treatment of peptic ulcer disease; cited from earlier work
# E. coli BL21(DE3) = test: Microdilution MIC assay; type: cell-based
# From the text: as §3
# E. coli ATCC 25922 = test: Microdilution MIC assay; type: cell-based
# From the text: as §3
# VIM-BL21 (VIM-2^+) = test: microbe, parasite or virus in culture; type: cell-based, E. coli; conditions: VIM-BL21
# IMP-BL21 (IMP-4^+) = test: microbe, parasite or virus in culture; type: cell-based, E. coli; conditions: IMP-BL21
# NDM-HK (NDM-1^+) = test: microbe, parasite or virus in culture; type: cell-based, E. coli
# [3] = MER + compound, 256 µg mL^-1 set as MIC of Bi(III)
# NDM-1-C208A, sequence (C7C422 29-270 C208A): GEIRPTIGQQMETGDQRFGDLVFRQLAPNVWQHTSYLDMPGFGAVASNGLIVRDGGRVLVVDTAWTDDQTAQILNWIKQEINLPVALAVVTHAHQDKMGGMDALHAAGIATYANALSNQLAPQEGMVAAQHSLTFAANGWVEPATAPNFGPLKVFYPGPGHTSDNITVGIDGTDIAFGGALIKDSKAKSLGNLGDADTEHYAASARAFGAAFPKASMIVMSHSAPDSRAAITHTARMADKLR
substance,measurement,setting,value
colloidal bismuth subcitrate [CBS],growth inhibition by CBS itself,"NDM-HK PCV; NDM-1-negative NDM-HK PCV, even at 256 µg mL^-1",no or minor growth inhibition
same,MIC of MER in combination with CBS at 16 µg mL-1,NDM-HK PCV; NDM-HK PCV,0.03 µg/mL
same,MIC of MER in combination with CBS at 32 µg mL-1,NDM-HK PCV; NDM-HK PCV,0.03 µg/mL
same,MIC of MER in combination with CBS at 256 µg mL-1,NDM-HK PCV; NDM-HK PCV,0.03 µg/mL
same,FICI,"NDM-HK PCV; NDM-HK PCV, MER + CBS",2
same,MIC of MER in combination with CBS at 16 µg mL-1,C208A-Rosetta,0.12 µg/mL
same,MIC of MER in combination with CBS at 32 µg mL-1,C208A-Rosetta,0.12 µg/mL
same,MBC of MER in combination with compound at 32 µg mL^-1,[1]; NDM-C. freundii (NDM-CF),1 µg/mL
same,MIC of MER in combination with compound at 32 µg mL^-1,[1]; NDM-C. freundii (NDM-CF),0.5 µg/mL
same,MBC of Bi(III) compound alone,[1]; NDM-CF,> 256 µg/mL
same,MIC of Bi(III) compound alone,[1]; NDM-CF,> 256 µg/mL
same,FICI,"[1]; NDM-CF, MER + compound, 256 µg mL^-1 set as MIC of Bi(III)",0.125
same,inhibitory effect on NDM-1-C208A,NDM-1-C208A,much reduced inhibitory effect
same,intoxication at recommended dosage,[2],No intoxication has been documented
same,MIC of MER in combination with CBS at 16 µg mL-1,E. coli BL21(DE3),0.03 µg/mL
same,MIC of MER in combination with CBS at 32 µg mL-1,E. coli BL21(DE3),0.03 µg/mL
same,MIC of MER in combination with CBS at 256 µg mL-1,E. coli BL21(DE3),0.03 µg/mL
same,MIC of MER in combination with CBS at 16 µg mL-1,E. coli ATCC 25922,0.03 µg/mL
same,MIC of MER in combination with CBS at 32 µg mL-1,E. coli ATCC 25922,0.03 µg/mL
same,MIC of MER in combination with CBS at 256 µg mL-1,E. coli ATCC 25922,0.03 µg/mL
same,MBC of Bi(III) compound alone,VIM-BL21 (VIM-2^+),> 256 µg/mL
same,MBC of MER in combination with compound at 32 µg mL^-1,VIM-BL21 (VIM-2^+),1 µg/mL
same,MIC of Bi(III) compound alone,VIM-BL21 (VIM-2^+),> 256 µg/mL
same,MIC of MER in combination with compound at 32 µg mL^-1,VIM-BL21 (VIM-2^+),0.5 µg/mL
same,FICI,VIM-BL21 (VIM-2^+); [3],0.047
same,MBC of Bi(III) compound alone,IMP-BL21 (IMP-4^+),> 256 µg/mL
same,MBC of MER in combination with compound at 32 µg mL^-1,IMP-BL21 (IMP-4^+),8 µg/mL
same,MIC of Bi(III) compound alone,IMP-BL21 (IMP-4^+),> 256 µg/mL
same,MIC of MER in combination with compound at 32 µg mL^-1,IMP-BL21 (IMP-4^+),4 µg/mL
same,FICI,IMP-BL21 (IMP-4^+); [3],0.187
same,growth inhibition by CBS itself,"NDM-HK (NDM-1^+); NDM-1-positive NDM-HK, even at 256 µg mL^-1",no or minor growth inhibition
same,MBC of Bi(III) compound/inhibitor alone,NDM-HK (NDM-1^+); NDM-HK,> 256 µg/mL
same,MBC of MER in combination with compound at 32 µg mL^-1,NDM-HK (NDM-1^+); NDM-HK,4 µg/mL
same,MIC of Bi(III) compound/inhibitor alone,NDM-HK (NDM-1^+); NDM-HK,> 256 µg/mL
same,MIC of MER in combination with CBS at 16 µg mL-1,NDM-HK (NDM-1^+); NDM-HK,4 µg/mL
same,MIC of MER in combination with CBS at 256 µg mL-1,NDM-HK (NDM-1^+); NDM-HK,2 µg/mL
same,MIC of MER in combination with compound at 32 µg mL^-1,NDM-HK (NDM-1^+); NDM-HK,2 µg/mL
same,FICI,"NDM-HK (NDM-1^+); NDM-HK, MER + compound, 256 µg mL^-1 set as MIC of Bi(III), 128 for Bi(NAC)3",0.250
